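Cultured in 96-well plates, cells were exposed to test compound for 48 hours across five concentrations. Definition used: TGI = concentration required for complete inhibition of growth.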
What was measured:
Assay in all cases: NCI tumour cell line growth inhibition, 48 h
[1] = tested on: RXF 393 renal
[2] = tested on: OVCAR-5 ovarian
[3] = tested on: DU-145 prostate
[4] = tested on: KM12 colon
[5] = tested on: EKVX NSCLC
[6] = tested on: T-47D breast
[7] = tested on: MCF7 breast
[8] = tested on: IGROV1 ovarian
[9] = tested on: OVCAR-4 ovarian
[10] = tested on: M14 melanoma
[11] = tested on: NCI-H23 lung
[12] = tested on: HCT-15 colon
[13] = tested on: SK-MEL-2 melanoma
[14] = tested on: RPMI-8226 leukemia
[15] = tested on: SN12C renal
[16] = tested on: CCRF-CEM leukemia
[17] = tested on: LOX IMVI melanoma
[18] = tested on: NCI-H460 lung
[19] = tested on: HOP-62 NSCLC
[20] = tested on: SR leukemia
[21] = tested on: SNB-19 CNS
[22] = tested on: OVCAR-8 ovarian
[23] = tested on: 786-0 renal
[24] = tested on: A498 renal
[25] = tested on: MOLT-4 leukemia
[26] = tested on: OVCAR-3 ovarian
[27] = tested on: SF-295 CNS
[28] = tested on: A549 NSCLC
[29] = tested on: SK-MEL-5 melanoma
[30] = tested on: SNB-75 CNS
[31] = tested on: PC-3 prostate
[32] = tested on: HL-60(TB) leukemia
[33] = tested on: HS 578T breast
[34] = tested on: HT29 colon
[35] = tested on: TK-10 renal
[36] = tested on: HCC-2998 colon
[37] = tested on: SF-268 CNS
[38] = tested on: NCI-H226 lung
[39] = tested on: BT-549 breast
[40] = tested on: SF-539 CNS
[41] = tested on: HCT-116 colon
[42] = tested on: MDA-N
[43] = tested on: UACC-257 melanoma
[44] = tested on: SW-620 colon
[45] = tested on: ACHN renal
[46] = tested on: UO-31 renal
[47] = tested on: NCI/ADR-RES ovarian
[48] = tested on: MDA-MB-231 breast
[49] = tested on: COLO 205 colon
[50] = tested on: NCI-H522 lung
[51] = tested on: SK-MEL-28 melanoma
[52] = tested on: SK-OV-3 ovarian
[53] = tested on: CAKI-1 renal
[54] = tested on: MDA-MB-435
[55] = tested on: U251 CNS
[56] = tested on: UACC-62 melanoma
[57] = tested on: MALME-3M melanoma
[58] = tested on: K-562 leukemia
[59] = tested on: HOP-92 NSCLC

With `CC(C)C1(C)N=C(C(F)(F)F)c2cc(C(=O)C(F)(F)F)c3ccccc3c2N1` (stereo unspecified) the TGI [1] was 10.1 µM, the TGI [2] was 24.5 µM and the TGI [3] was 14.1 µM. For the same compound, the TGI [4] was 12.7 µM, the TGI [5] was 18.4 µM and the TGI [6] was 11.4 µM. For the same compound, the TGI [7] was 14.7 µM, the TGI [8] was 3.28 µM and the TGI [9] was 18.9 µM. The TGI [10] was 18.2 µM, the TGI [11] was 8.12 µM and the TGI [12] was 14.1 µM. It also gave a TGI [13] of 6.99 µM, a TGI [14] of over 27 µM and a TGI [15] of 11 µM. It also gave a TGI [16] of over 100 µM, a TGI [17] of 7.01 µM and a TGI [18] of 14.6 µM. For the same compound, the TGI [19] was 18.5 µM, the TGI [20] was over 100 µM and the TGI [21] was 16.6 µM. For the same compound, the TGI [22] was 17.6 µM, the TGI [23] was 15.8 µM and the TGI [24] was 28.7 µM. The TGI [25] was 18.1 µM, the TGI [26] was 10.6 µM and the TGI [27] was 11.8 µM. For the same compound, the TGI [28] was 23.5 µM, the TGI [29] was 25.9 µM and the TGI [30] was 7.96 µM. For the same compound, the TGI [31] was 6.75 µM, the TGI [32] was 23.3 µM and the TGI [33] was 11 µM. The TGI [34] was 13.5 µM, the TGI [35] was 15.5 µM and the TGI [36] was 11.9 µM. For the same compound, the TGI [37] was 13.7 µM, the TGI [38] was 30.4 µM and the TGI [39] was 10.7 µM. It also gave a TGI [40] of 20.8 µM, a TGI [41] of 11.8 µM and a TGI [42] of 13 µM. It also gave a TGI [43] of 19.5 µM, a TGI [44] of over 51.6 µM and a TGI [45] of 12 µM. It also gave a TGI [46] of 14.1 µM, a TGI [47] of 9.09 µM and a TGI [48] of 11.2 µM. For the same compound, the TGI [49] was 15.8 µM, the TGI [50] was 7.16 µM and the TGI [51] was 20.8 µM. It also gave a TGI [52] of 30.2 µM, a TGI [53] of 9.74 µM and a TGI [54] of 11.3 µM. It also gave a TGI [55] of 11.1 µM, a TGI [56] of 15.3 µM and a TGI [57] of 12.7 µM. The TGI [58] was over 100 µM.

For `COC(=O)C(O)P(=O)(OC)OC` (stereo unspecified), the TGI [1] was over 100 µM, the TGI [2] was over 100 µM and the TGI [3] was over 100 µM. For the same compound, the TGI [4] was over 100 µM, the TGI [5] was over 100 µM and the TGI [6] was over 100 µM. It also gave a TGI [7] of over 100 µM, a TGI [8] of over 100 µM and a TGI [9] of over 100 µM. The TGI [10] was over 100 µM, the TGI [11] was over 100 µM and the TGI [12] was over 100 µM. The TGI [13] was over 100 µM, the TGI [14] was over 100 µM and the TGI [15] was over 100 µM. For the same compound, the TGI [17] was over 100 µM, the TGI [19] was over 100 µM and the TGI [20] was over 100 µM. For the same compound, the TGI [21] was over 100 µM, the TGI [22] was over 100 µM and the TGI [23] was over 100 µM. It also gave a TGI [24] of over 100 µM, a TGI [25] of over 100 µM and a TGI [26] of over 100 µM. For the same compound, the TGI [27] was over 100 µM, the TGI [28] was over 100 µM and the TGI [29] was over 100 µM. The TGI [31] was over 100 µM, the TGI [32] was over 100 µM and the TGI [33] was over 100 µM. For the same compound, the TGI [34] was over 100 µM, the TGI [37] was over 100 µM and the TGI [38] was over 100 µM. For the same compound, the TGI [39] was over 100 µM, the TGI [41] was over 100 µM and the TGI [42] was over 100 µM. For the same compound, the TGI [43] was over 100 µM, the TGI [44] was over 100 µM and the TGI [45] was over 100 µM. It also gave a TGI [46] of over 100 µM, a TGI [47] of over 100 µM and a TGI [48] of over 100 µM. For the same compound, the TGI [59] was over 100 µM, the TGI [49] was over 100 µM and the TGI [50] was over 100 µM. It also gave a TGI [51] of over 100 µM, a TGI [52] of over 100 µM and a TGI [53] of over 100 µM. The TGI [54] was over 100 µM, the TGI [55] was over 100 µM and the TGI [56] was over 100 µM. For the same compound, the TGI [57] was over 100 µM and the TGI [58] was over 100 µM.
